The numbers were not newly measured in US7041675B2, “Heterocyclic compounds and their use as PARP inhibitors” (Abbott GmbH & Co. KG, priority 2000, dated 2006), which cites them from elsewhere.

This data set deals with model of circulatory shock. As to conditions: S. Cuzzocrea et al., Br. J. Pharmacol. 1997.

Regarding `NC(=O)c1cccc(N)c1` [3-aminobenzamide], the “protective effects in a model of circulatory shock” value is given as “protective effects”.
